Experimental data published in PubChem BioAssay (NCI).
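48-hour exposure; five concentrations; linearly interpolated endpoints. Definition used: TGI = concentration required for complete inhibition of growth.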

Key:
Test in all cases: NCI tumour cell line growth inhibition, 48 h
[1] = system: SK-MEL-2 melanoma
[2] = system: HCC-2998 colon
[3] = system: M14 melanoma
[4] = system: COLO 205 colon
[5] = system: OVCAR-3 ovarian
[6] = system: OVCAR-8 ovarian
[7] = system: OVCAR-5 ovarian
[8] = system: LOX IMVI melanoma
[9] = system: RPMI-8226 leukemia
[10] = system: MDA-MB-231 breast
[11] = system: UO-31 renal
[12] = system: A549 NSCLC
[13] = system: K-562 leukemia
[14] = system: HS 578T breast
[15] = system: 786-0 renal
[16] = system: MDA-MB-435
[17] = system: BT-549 breast
[18] = system: IGROV1 ovarian
[19] = system: KM12 colon
[20] = system: MDA-N
[21] = system: MOLT-4 leukemia
[22] = system: MALME-3M melanoma
[23] = system: CCRF-CEM leukemia
[24] = system: NCI-H226 lung
[25] = system: SN12C renal
[26] = system: NCI-H23 lung
[27] = system: SNB-19 CNS
[28] = system: TK-10 renal
[29] = system: SW-620 colon
[30] = system: SK-MEL-5 melanoma
[31] = system: RXF 393 renal
[32] = system: U251 CNS
[33] = system: HT29 colon
[34] = system: NCI-H460 lung
[35] = system: SF-295 CNS
[36] = system: NCI-H522 lung
[37] = system: DU-145 prostate
[38] = system: OVCAR-4 ovarian
[39] = system: UACC-257 melanoma
[40] = system: MCF7 breast
[41] = system: HOP-92 NSCLC
[42] = system: ACHN renal
[43] = system: HCT-15 colon
[44] = system: UACC-62 melanoma
[45] = system: T-47D breast
[46] = system: SR leukemia
[47] = system: HL-60(TB) leukemia
[48] = system: HOP-62 NSCLC
[49] = system: SF-539 CNS
[50] = system: HCT-116 colon
[51] = system: NCI/ADR-RES ovarian
[52] = system: A498 renal
[53] = system: SNB-75 CNS
[54] = system: PC-3 prostate
[55] = system: CAKI-1 renal
[56] = system: SK-OV-3 ovarian
[57] = system: SF-268 CNS
[58] = system: EKVX NSCLC
[59] = system: SK-MEL-28 melanoma

CN1CCN(C(=S)N(C)C(=O)c2ccco2)CC1
TGI [1]: > 100 µM | TGI [2]: > 100 µM | TGI [3]: > 100 µM | TGI [4]: > 100 µM | TGI [5]: > 100 µM | TGI [6]: > 100 µM | TGI [7]: > 100 µM | TGI [8]: > 100 µM | TGI [9]: > 100 µM | TGI [10]: > 100 µM | TGI [11]: > 100 µM | TGI [12]: > 100 µM | TGI [13]: > 100 µM | TGI [14]: > 100 µM | TGI [15]: > 100 µM | TGI [16]: > 100 µM | TGI [17]: > 100 µM | TGI [18]: > 100 µM | TGI [19]: > 100 µM | TGI [20]: > 100 µM | TGI [21]: > 100 µM | TGI [22]: > 100 µM | TGI [23]: > 100 µM | TGI [24]: > 100 µM | TGI [25]: > 100 µM | TGI [26]: > 100 µM | TGI [27]: > 100 µM | TGI [28]: > 100 µM | TGI [29]: > 100 µM | TGI [30]: > 100 µM | TGI [31]: > 100 µM | TGI [32]: > 100 µM | TGI [33]: > 100 µM | TGI [34]: > 100 µM | TGI [35]: > 100 µM | TGI [36]: > 100 µM | TGI [37]: > 100 µM | TGI [38]: > 100 µM | TGI [39]: > 100 µM | TGI [40]: > 100 µM | TGI [41]: > 100 µM | TGI [42]: > 100 µM | TGI [43]: > 100 µM | TGI [44]: > 100 µM | TGI [45]: > 100 µM | TGI [46]: > 100 µM

COc1cc(C2c3c(ccc4ccccc34)C(=O)C3CCC(=O)N32)cc(OC)c1OC (stereo not given)
TGI [1]: > 50 µM | TGI [3]: > 50 µM | TGI [47]: > 50 µM | TGI [4]: > 50 µM | TGI [5]: > 50 µM | TGI [48]: > 50 µM | TGI [6]: > 50 µM | TGI [7]: > 50 µM | TGI [49]: > 50 µM | TGI [9]: > 50 µM | TGI [50]: > 50 µM | TGI [51]: > 50 µM | TGI [10]: > 50 µM | TGI [11]: > 50 µM | TGI [12]: > 50 µM | TGI [13]: > 50 µM | TGI [14]: > 50 µM | TGI [15]: > 50 µM | TGI [16]: > 50 µM | TGI [17]: > 50 µM | TGI [18]: > 50 µM | TGI [19]: > 50 µM | TGI [20]: > 50 µM | TGI [52]: > 50 µM | TGI [21]: > 50 µM | TGI [23]: > 50 µM | TGI [24]: > 50 µM | TGI [25]: > 50 µM | TGI [26]: > 50 µM | TGI [27]: > 50 µM | TGI [29]: > 50 µM | TGI [53]: > 50 µM | TGI [54]: > 50 µM | TGI [55]: > 50 µM | TGI [31]: > 50 µM | TGI [32]: > 50 µM | TGI [33]: > 50 µM | TGI [34]: > 50 µM | TGI [35]: > 50 µM | TGI [36]: > 50 µM | TGI [37]: > 50 µM | TGI [56]: > 50 µM | TGI [57]: > 50 µM | TGI [58]: > 50 µM | TGI [38]: > 50 µM | TGI [39]: > 50 µM | TGI [40]: > 50 µM | TGI [41]: > 50 µM | TGI [42]: > 50 µM | TGI [43]: > 50 µM | TGI [59]: > 50 µM | TGI [44]: > 50 µM | TGI [45]: > 50 µM | TGI [46]: > 50 µM
